Measured values published in patent US20250295826A1, “[…] UREASE INHIBITORS” (Symrise AG, priority 2022, published 2025).

Assays:
urease [1] = assay: Screening of urease inhibition (colorimetric Phenol Red assay, 96 well plates); assay type: biochemical; conditions: additive 0.1 w/w, urea 0.2% w/w, urease 0.5 U/ml; for Inhibition: fraction vs negative control, 1 h
Procedure: Urease catalyzed ammonia formation leads to a change in pH (alkalization). […] The enzymatic screening assay is described below. The colorimetric assay is conducted in 96 well plates in combination with a microplate spectrophotometer with Phenol Red as pH sensitive indicator.
In brief: the substrate urea, the fragrance raw material and the urease are mixed in the wells and the change in absorption at 560 nm is monitored for 1 h. The resulting absorbance curves are compared to untreated samples (negative controls, without inhibitors) and samples with commercially available NBPT inhibitor (positive control).

urease [2] = assay: Application in cat litter: ammonia formation from artificial cat urine (headspace sampling); conditions: litter coated with 0.1% (w/w) active material; artificial cat urine with urea and urease; headspace ammonia over 5 days; negative control = 100
Procedure: The efficiency of reducing ammonia formation in cat litter was tested with different fragrance raw materials that are shown in the table below (table 3).
In brief, the litter was coated with a final concentration of 0.1% (w/w) of active material respective to the dry litter material. In a glass bottle with a total volume of 5 l, the litter is treated with artificial cat urine that consists of an aqueous salt solution containing urea and urease. The development of ammonia is measured through headspace sampling with an ammonia sensitive detector over a period of 5 days.

SMILES | Inhibition (urease [1]; positive hits table) | other results
CC/C=C\CCOC(=O)CC(C)C [HEXENYL I[…]-3, cis-3-hexenyl isovalerate] | 0.724 | 
CCCCNP(N)(N)=S [NBPT, reference compound] |  | Inhibition (urease [1]; Table 2): 1.00; Δ Absorbance at 1 h (560 nm) (urease [1]; PBS pH 7.4, monitored 1 h): 0.00
CC1=C(O)C(=O)C(C)O1 (stereo not drawn) [FURANEOL, 4-Hydroxy-2,5-dimethyl-3-furanone] | 0.985 | 
COc1ccccc1O [GUAIACOL, 2-Methoxyphenol] | 0.718 | 
CC/C=C\CC/C=C/CO [NONADIENOL-2,6, 2,6-nonadien-1-ol] | 0.885 | 
CC/C=C\CCO [HEXENOL CIS-3, cis-3-hexenol] | 0.888 | 
CC(C)=CCC/C(C)=C\CO [NEROL 900, (2Z)-3,7-dimethylocta-2,6-dien-1-ol] | 0.758 | 
C=CCc1ccc(O)c(OC)c1 [EUGENOL NAT., 2-Methoxy-4-(prop-2-en-1-yl)phenol] | 0.908 | 
CC/C=C\CCOC(C)OCC (stereo not drawn) [LEAF ACETAL, cis-1-(1-Ethoxyethoxy)-3-hexene] | 0.964 | Relative ammonia formation in % (urease [2]): 81%
CC(C)=CCC/C(C)=C/CO [GERANIOL 60 B, 2,6-Octadien-1-ol 3,7-dimethyl] | 0.910 | 
CC(=O)/C(C)=C/C1C(C)=CCCC1(C)C (stereo not drawn) [METHYL IONONE GAMMA PURE/IFF, methyl ionone gamma] | 0.942 | 
C/C=C/C(=O)C1C(C)=CCCC1(C)C (stereo not drawn) [DAMASCONE ALPHA, (E)-1-(2,6,6-trimethyl-1-cyclohex-2-enyl)but-2-en-1-one] | 0.991 | 
CCC/C=C/C=O [HEXENAL TRANS-2, trans-2-hexenal] | 0.961 | Relative ammonia formation in % (urease [2]): 32%
CC/C=C\CCOC(=O)C(C)C [HEXENYL I[…]-3, cis-3-hexenyl isobutyrate] | 0.865 | 
CC/C=C\CCOC(C)=O [HEXENYL ACETATE CIS-3, cis-3-hexenyl acetate] | 0.723 | 
OC/C=C/c1ccccc1 [CINNAMIC ALCOHOL, (2E)-3-phenylprop-2-en-1-ol] | 0.931 | 
CC/C=C\CCOC(=O)c1ccccc1O [HEXENYL […]-3, cis-3-hexenyl salicylate] | 0.989 | Relative ammonia formation in % (urease [2]): 65%
C/C=C/C(=O)C1=C(C)C=CCC1(C)C [D[…], (E)-1-(2,6,6-trimethyl-1-cyclohexa-1,3-dienyl)but-2-en-1-one] | 0.985 | 
CCOc1cc(C)ccc1O [2-ethoxy-4-methylphenol] | 0.786 | 
CC/C=C\CCOC(=O)CCCCC [HEXENYL CAPROATE CIS-3, cis-3-hexenyl hexanoate] | 0.824 | 
CCC/C=C/CO [HEXENOL TRANS-2, trans-2-hexenol] | 0.912 | 
CCC(=O)/C=C/C1C(C)=CCCC1(C)C (stereo not drawn) [METHYL IONONE ALPHA/IFF, methyl ionone alpha] | 0.936 | 
Cc1ccc2c(c1)OC(=O)C2C (stereo not drawn) [FURAMINTON/TONKALACTONE ™, dimethyl-3,6-benzo-2(3H)-furanone] | 0.669 | 
CC/C=C\CCOC(=O)CC [HEXENYL […]-3, cis-3-hexenyl propionate] | 0.956 | 
CC/C=C\CCOC(=O)CCC [HEXENYL BUTYRATE CIS-3, cis-3-hexenyl butyrate] | 0.999 | Relative ammonia formation in % (urease [2]): 65%
